Test [1] deals with IL-17A-induced G-CSF production in human normal keratinocyte (NHK). As to the kind of experiment: NHK Assay: IL-17A-induced G-CSF production in human normal keratinocytes. The conditions noted are these: Homo sapiens, Keratinocyte, 24 h, adult normal human keratinocytes, IL-17A 5 ng/mL, simple average if tested more than once. Type of test: cell-based. The method, boiled down: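 HTRF read-out of supernatant G-CSF, quantified from a standard curve, gave IC50 values. Adult keratinocytes, 3000-4000 cells/well, received human IL-17A (5 ng/mL final) pre-mixed 1 h at rt with compound, in 5% FBS and 0.2% DMSO, 24 h at 37° C.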

For test [2], the target named is IL-17A(FLAG-Tagged): IL-17RA(His-Tagged) (Homo sapiens, UniProt Q16552, K93Q). As to the kind of experiment: IL-17A(FLAG-Tagged): IL-17RA(His-Tagged) Binding Disruption Eu-HTRF Assay. The conditions noted are these: IL-17A/IL-17RA binding disruption, simple average if tested more than once. The method, boiled down:
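IC50 comes from a one-site competition fit of the HTRF 665/620 nm ratio. Compound dilutions (2-fold, 22 points) were held 1 h rt with FLAG-tagged IL-17A dimer, then His-tagged IL-17RA plus Eu-cryptate anti-FLAG and D2 anti-His antibodies were added for 2 h rt.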
(Time-resolved FRET reads energy transfer from a long-lived donor to a nearby acceptor.)

In the next test the test system is patients with PsA. The conditions noted are these: PsA with inadequate response to conventional synthetic disease-modifying antirheumatic drug; cited from earlier work.
The subject of the next test is patients with active PsA. The conditions noted are these: compared with anti-TNFα antibodies; cited from earlier work.
For test [3], the system named is patients with moderate-to-severe HS. The conditions noted are these: seven of nine patients, open-label pilot-trial; cited from earlier work.
For test [4], the system named is SCIDhu model of human myeloma. Particulars: weekly for 4 weeks after first detection of tumor, compared to isotype control mice; cited from earlier work.

Sequence of UniProt Q16552 (Q16552 with tags, fused parts or gaps K93Q): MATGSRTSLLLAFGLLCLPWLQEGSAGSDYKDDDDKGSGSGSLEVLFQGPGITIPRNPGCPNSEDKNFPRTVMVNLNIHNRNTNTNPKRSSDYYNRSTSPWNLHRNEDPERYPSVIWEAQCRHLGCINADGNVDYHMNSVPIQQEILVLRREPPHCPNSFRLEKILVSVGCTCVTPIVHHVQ

For orientation: IC50 means the point on the concentration scale where inhibition reaches its midpoint. For the compound `CC(C)n1ncnc1C(=O)N[C@H](c1cn2ncc([C@H](NC(=O)CCC(F)(F)F)C3CC3)cc2n1)C1CCC(F)(F)CC1` [Example 483, N—[(S)-[7-[(R)-Cyclopropyl-(4,4,4-trifluorobutanamido)methyl]imidazo[1,2-b]pyridazin-2-yl]-(4,4-difluorocyclohexyl)methyl]-2-isopropyl-1,2,4-triazole-3-carboxamide], the results for the IC50 in test [1] and in test [2] were 0.38 µM and 0.075 µM, respectively.
On to `CC(C)n1nnc(C(=O)N[C@H](c2cn3ncc([C@H](NC(=O)CCC(F)(F)F)C4CC4)cc3n2)C2CCC(F)(F)CC2)n1` [Example 484, N—[(S)-[7-[(R)-Cyclopropyl-(4,4,4-trifluorobutanamido)methyl]imidazo[1,2-b]pyridazin-2-yl]-(4,4-difluorocyclohexyl)methyl]-2-isopropyl-tetrazole-5-carboxamide], for which the figures for the IC50 in test [1] and in test [2] were 4.6 µM and 0.55 µM, respectively.
For `O=C(CCC(F)(F)F)N[C@@H](c1cnn2cc([C@@H](NC(=O)c3cnn(CCN4CC(F)(F)C4)n3)C3CCC(F)(F)CC3)nc2c1)C1CC1` [Example 485, N—[(S)-[7-[(R)-Cyclopropyl-(4,4,4-trifluorobutanamido)methyl]imidazo[1,2-b]pyridazin-2-yl]-(4,4-difluorocyclohexyl)methyl]-2-[2-(3,3-difluoroazetidin-1-yl)ethyl]triazole-4-carboxamide] the same measures were 0.31 µM and 0.92 µM.
For `O=C(CCC(F)(F)F)N[C@@H](c1cnn2cc([C@@H](NC(=O)c3cnn(CCNCC(F)(F)CCl)n3)C3CCC(F)(F)CC3)nc2c1)C1CC1` [Example 486, 2-[2-[(3-Chloro-2,2-difluoro-propyl)amino]ethyl]-N—[(S)-[7-[(R)-cyclopropyl-(4,4,4-trifluorobutanamido)methyl]imidazo[1,2-b]pyridazin-2-yl]-(4,4-difluorocyclohexyl)methyl]triazole-4-carboxamide] the same measures were 1.1 µM and 0.3 µM.
In the case of `N#CC1([C@@H](NC(=O)CC2CC(F)(F)C2)c2cnn3cc([C@@H](NC(=O)c4nonc4C4CC4)C4CCC(F)(F)CC4)nc3c2)CCC1` [Example 487, N—((S)-(7-((S)-(1-Cyanocyclobutyl)(2-(3,3-difluorocyclobutyl)acetamido)methyl)imidazo[1,2-b]pyridazin-2-yl)(4,4-difluorocyclohexyl)methyl)-4-cyclopropyl-1,2,5-oxadiazole-3-carboxamide], the 50% inhibitory concentration (IC50) in test [1] was 0.006 µM; in test [2], 0.045 µM.
For `[2H]C([2H])([2H])n1nccc1C(=O)N[C@H](c1cn2ncc([C@H](NC(=O)CCC(F)(F)F)C3CC3)cc2n1)C1CCC(F)(F)CC1` [Example 488, N—((S)-(7-((R)-Cyclopropyl(4,4,4-trifluorobutanamido)methyl)imidazo[1,2-b]pyridazin-2-yl)(4,4-difluorocyclohexyl)methyl)-1-(methyl-d3)-1H-pyrazole-5-carboxamide], in that order: 0.22 µM and 0.095 µM.
For `[2H]C([2H])([2H])n1nccc1C(=O)N[C@H](c1cn2ncc([C@H](NC(=O)CC3CC(F)(F)C3)C3CC3)cc2n1)C1CCC(F)(F)CC1` [Example 489, N—((S)-(7-((R)-Cyclopropyl(2-(3,3-difluorocyclobutyl)acetamido)methyl)imidazo[1,2-b]pyridazin-2-yl)(4,4-difluorocyclohexyl)methyl)-1-(methyl-d3)-1H-pyrazole-5-carboxamide], in that order: 0.14 µM and 0.054 µM.
For `CC(C)(OC[C@H](NC(=O)c1nonc1C1CC1)c1cn2ncc([C@H](NC(=O)CC3CC(F)(F)C3)C3CCOCC3)cc2n1)C(F)(F)F` [Example 540, 4-Cyclopropyl-N—((R)-1-(7-((R)-(2-(3,3-difluorocyclobutyl)acetamido)(tetrahydro-2H-pyran-4-yl)methyl)imidazo[1,2-b]pyridazin-2-yl)-2-((1,1,1-trifluoro-2-methylpropan-2-yl)oxy)ethyl)-1,2,5-oxadiazole-3-carboxamide], the figures for the half-inhibitory concentration (IC50) in test [1] and in test [2] were 0.0096 µM and 0.014 µM, respectively.
For `CC(C)n1nccc1C(=O)N[C@@H](COC(C)(C)C(F)(F)F)c1cn2ncc([C@H](NC(=O)CC3CC(F)(F)C3)C3CCOCC3)cc2n1` [Example 541, N—((R)-1-(7-((R)-(2-(3,3-Difluorocyclobutyl)acetamido)(tetrahydro-2H-pyran-4-yl)methyl)imidazo[1,2-b]pyridazin-2-yl)-2-((1,1,1-trifluoro-2-methylpropan-2-yl)oxy)ethyl)-1-isopropyl-1H-pyrazole-5-carboxamide], in that order: 0.029 µM and 0.13 µM.
For `CC(C)(C[C@H](NC(=O)c1nonc1C1CC1)c1cn2ncc([C@H](NC(=O)CC3CC(F)(F)C3)C3CC3)cc2n1)C(F)(F)F` [Example 542, 4-Cyclopropyl-N—((S)-1-(7-((R)-cyclopropyl(2-(3,3-difluorocyclobutyl)acetamido)methyl)imidazo[1,2-b]pyridazin-2-yl)-4,4,4-trifluoro-3,3-dimethylbutyl)-1,2,5-oxadiazole-3-carboxamide] the same measures were 0.046 µM and 0.052 µM.
With `CC(C)n1nccc1C(=O)N[C@@H](CC(C)(C)C(F)(F)F)c1cn2ncc([C@H](NC(=O)CC3CC(F)(F)C3)C3CC3)cc2n1` [Example 543, N—((S)-1-(7-((R)-Cyclopropyl(2-(3,3-difluorocyclobutyl)acetamido)methyl)imidazo[1,2-b]pyridazin-2-yl)-4,4,4-trifluoro-3,3-dimethylbutyl)-1-isopropyl-1H-pyrazole-5-carboxamide], the IC50 was found to be 0.072 µM in test [1] and 0.18 µM in test [2].
For `Cc1nonc1C(=O)N[C@@H](CC(C)(C)C(F)(F)F)c1cn2ncc([C@H](NC(=O)CC3CC(F)(F)C3)C3CC3)cc2n1` [Example 544, N—((S)-1-(7-((R)-Cyclopropyl(2-(3,3-difluorocyclobutyl)acetamido)methyl)imidazo[1,2-b]pyridazin-2-yl)-4,4,4-trifluoro-3,3-dimethylbutyl)-4-methyl-1,2,5-oxadiazole-3-carboxamide], in that order: 0.24 µM and 0.12 µM.
For `[2H]C([2H])([2H])C([2H])([2H])n1nccc1C(=O)N[C@@H](CC(C)(C)C(F)(F)F)c1cn2ncc([C@H](NC(=O)CC3CC(F)(F)C3)C3CC3)cc2n1` [Example 545, N—((S)-1-(7-((R)-Cyclopropyl(2-(3,3-difluorocyclobutyl)acetamido)methyl)imidazo[1,2-b]pyridazin-2-yl)-4,4,4-trifluoro-3,3-dimethylbutyl)-1-(ethyl-d5)-1H-pyrazole-5-carboxamide] the same measures were 0.15 µM and 0.17 µM.
ixekizumab: in the test on patients with PsA, the “simultaneous improvement of joint and skin disease (ACR50 and PASI100)” value is “superior to adalimumab”.
As for secukinumab, the “ACR 20/50/70 response rates” value in the test with patients with active PsA is “higher ACR 20/50/70 response rates”. Besides, in test [3], the “patients achieving HiSCR” value is 78%. Further, in test [4], the bone damage entry was “reduced bone damage” and the tumor growth entry is reported as “significant inhibition of tumor growth”.

Values taken from patent publication US11702422B2, “Imidazopyridazines as modulators of IL-17” (Janssen Pharmaceutica NV, priority 2020, dated 2023).
